Reference: article PMC6107187, “A novel homodimer laccase from Cerrena unicolor BBP6: Purification, characterization, and potential in dye decolorization and denim bleaching” (PLoS ONE, 2018)
Like-named read-outs stand apart in the source and are kept apart here. One block for each compound: values may come before it.

How the values were obtained:
[1] = biological target: Cerrena unicolor BBP6 laccase (LacA) (Cerrena unicolor BBP6); experiment: SEC; Superdex 200 Increase 10/300 GL, 10 mM phosphate buffer-140 mM NaCl (pH 7.4), 0.5 mL min^-1, room temperature; native mass compared with the subunit mass from SDS-PAGE
LacA [2] = experiment: oxidation monitored at […] nm, Lineweaver-Burk; format: biochemical, Cerrena unicolor; settings: optimal pH 5.5 and temperature 80°C; 0.5–10 mM 2,6-DMP; apparent Km
LacA [3] = settings: optimal pH 2.5 and temperature 60°C; 5–100 μM ABTS; apparent Km
LacA [4] = experiment: oxidation monitored at […] nm, Lineweaver-Burk; format: biochemical, Cerrena unicolor; settings: optimal pH 4.0 and temperature 80°C; 0.5–5 mM guaiacol; apparent Km

stoichiometry N [1]: 2
Compound: Cerrena unicolor BBP6 laccase (LacA) (enzyme)

Km (LacA [2]): 3430 µM
Compound: COc1cccc(OC)c1O [2,6-DMP]

Km (LacA [3]): 49.1 µM
Compound: CCn1c(=NN=c2sc3cc(S(=O)(=O)O)ccc3n2CC)sc2cc(S(=O)(=O)O)ccc21 [ABTS]

Km (LacA [4]): 1240 µM
Compound: COc1ccccc1O [guaiacol]
